Data on twelve compounds can be found in patent US7579486B2, “Metalloprotein inhibitors” (Regents of the University of California, San Diego, priority 2004, dated 2009).

Each structure is given as a SMILES string. Like-named read-outs stand apart in the source and are kept apart here. Some results are limits rather than exact numbers.

Test [1] addresses LF (Bacillus anthracis, UniProt P15917). Description: biochemical. The arrangement: species or system B. anthracis.
The target of test [2] is HDAC. Description: Inhibition of histone deacetylase (HDAC). In kind it is biochemical. The following applies: read-out: Average IC50 against HDAC.
Test [3] concerns neonatal rat cardiac fibroblasts. Description: Cell invasion assay (Chemicon ECM 555). In kind it is cell-based. Conditions: 250 nM, 20 h. On the procedure: Cell Invasion Assay. A cell invasion assay kit was purchased from Chemicon International (Cat. No. ECM 555) and the assay was performed as per kit instructions with minor modifications. Rat cardiac fibroblasts (CF) were prepared as previously described (F. J. Villarreal, N. N. Kim, G. D. Ungab, M. P. Printz, W. H. Dillmann, Circulation 1993, 88, 2849). Briefly, CF were prepared from hearts of 1-2 day old Sprague Dawley rats. Following collagenase digestions (4×), non-myocyte cells (mostly fibroblasts) were isolated by Percoll density gradient. The cell suspension was plated onto uncoated tissue culture dishes for 30 min to allow preferential attachment of CF to the bottom of the dish. The non-adherent cells were removed and fresh media (Dulbecco's modified Eagle's media +10% fetal bovine serum) was added. CF were allowed to proliferate to confluence and then trypsinized and frozen at −70° C. Stocks were freshly plated for the experiment and used from second passage. When reaching 90% confluence, cells were serum deprived for 24 h and then treated according to the experimental design (vide infra).
The CF were trypsinized once more and suspended in fresh serum-free media. Inhibitors AM-5 and AM-6 were dissolved in DMSO and diluted 10-fold in serum free media. […] Increased fluorescence indicates the presence of invaded cells. […]

The target in test [4] is T1, human MMP-1 catalytic domain (Homo sapiens, UniProt P03956).
T1 sequence (P03956 100-268): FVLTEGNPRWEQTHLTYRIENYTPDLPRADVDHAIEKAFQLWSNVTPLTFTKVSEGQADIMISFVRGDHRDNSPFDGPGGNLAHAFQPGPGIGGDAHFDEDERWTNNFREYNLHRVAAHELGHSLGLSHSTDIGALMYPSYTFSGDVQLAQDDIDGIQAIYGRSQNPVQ
Kind of test: MMP-1 fluorescent microplate assay (BIOMOL kit). In kind it is biochemical. Conditions: fluorescence-based assay, 1 h at 37° C. with inhibitor, pH 7.5; read-out: IC50 against MMP-1. The text has this:
(§1) Experiments were repeated at least three times.

The target of test [5] is human MMP-2 catalytic domain (Homo sapiens, UniProt P08253). Description: MMP-2 fluorescent microplate assay (BIOMOL kit). It counts as biochemical. The following applies: for IC50: fluorescence-based assay, 1 h at 37° C. with inhibitor, pH 7.5, read-out: IC50 against MMP-2.
Description: as §1

Where [6] appears, read: read-out: Average IC50 against LF.

Chain of human MMP-2 catalytic domain (P08253 110-452): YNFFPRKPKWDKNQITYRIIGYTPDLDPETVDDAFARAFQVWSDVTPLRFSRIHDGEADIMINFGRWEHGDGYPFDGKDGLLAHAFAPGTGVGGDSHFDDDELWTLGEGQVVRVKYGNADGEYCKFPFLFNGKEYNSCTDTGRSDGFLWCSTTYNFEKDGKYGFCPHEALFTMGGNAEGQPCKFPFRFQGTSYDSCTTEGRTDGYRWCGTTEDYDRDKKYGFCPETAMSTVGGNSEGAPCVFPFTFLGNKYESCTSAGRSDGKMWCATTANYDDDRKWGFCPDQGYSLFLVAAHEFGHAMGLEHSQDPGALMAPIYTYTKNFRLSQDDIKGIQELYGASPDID
Chain of LF (P15917 34-809 limits assumed): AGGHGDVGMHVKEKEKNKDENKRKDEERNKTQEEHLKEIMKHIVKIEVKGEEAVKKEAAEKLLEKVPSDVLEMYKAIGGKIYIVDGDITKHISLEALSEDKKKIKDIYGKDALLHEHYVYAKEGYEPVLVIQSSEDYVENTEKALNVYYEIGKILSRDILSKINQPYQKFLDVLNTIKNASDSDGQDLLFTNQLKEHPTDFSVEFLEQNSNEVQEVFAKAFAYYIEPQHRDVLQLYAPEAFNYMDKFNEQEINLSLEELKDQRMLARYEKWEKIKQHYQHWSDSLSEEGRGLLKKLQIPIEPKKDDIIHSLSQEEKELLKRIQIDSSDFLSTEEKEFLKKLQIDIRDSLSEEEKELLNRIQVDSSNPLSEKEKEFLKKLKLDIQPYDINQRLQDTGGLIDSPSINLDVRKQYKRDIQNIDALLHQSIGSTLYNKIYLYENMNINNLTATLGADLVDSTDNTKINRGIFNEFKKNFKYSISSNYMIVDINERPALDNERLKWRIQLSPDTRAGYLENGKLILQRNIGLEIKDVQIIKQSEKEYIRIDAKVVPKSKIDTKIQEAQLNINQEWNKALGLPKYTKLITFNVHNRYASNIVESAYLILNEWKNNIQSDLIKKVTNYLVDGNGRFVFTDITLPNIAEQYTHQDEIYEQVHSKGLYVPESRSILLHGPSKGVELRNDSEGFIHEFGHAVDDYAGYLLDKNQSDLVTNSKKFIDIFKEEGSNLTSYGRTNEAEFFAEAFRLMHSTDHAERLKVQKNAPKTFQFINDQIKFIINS

In general, IC50 refers to the point on the concentration scale where inhibition reaches its midpoint. Take `On1ccccc1=S` [1,2-HOPTO]: the IC50 amounted to 3900 µM in test [1] (setting [6]) and 860 µM in test [2].

Consider `Cc1cc(=O)c(O)c(C(=O)NCc2ccc(-c3ccc(-c4ccccc4)cc3)cc2)o1` [AM-6, 3-Hydroxy-6-methyl-pyran-4(1H)-one-2-carboxy-N-(4-biphenylbenzylamide)], for which the “reduction of invasion of neonatal rat cardiac fibroblasts through a collagen membrane” value in test [3] is 55%. Further, the concentration for half-maximal inhibition (IC50) in test [4] and in test [5] was more than 50 µM each time. In addition, in test [5], the “potency against MMP-2 compared with MMP-3, in words” value was “substantially less potent against MMP-2”.

Regarding `COc1ccc(CNC(=O)c2oc(C)cc(=O)c2O)cc1` [AM-4], in test [4], the IC50 is more than 50 µM. Besides, in test [5], the “potency against MMP-2 compared with MMP-3, in words” value is “substantially less potent against MMP-2” and the IC50 is more than 50 µM.

As for `Cc1cc(=O)c(O)c(C(=O)NCc2ccc(-c3ccccc3)cc2)o1` [AM-2, 3-Hydroxy-6-methyl-pyran-4(1)-one-2-carboxy-N-(4-phenylbenzylamide)], in test [4], the 50% inhibitory concentration (IC50) is more than 50 µM. In test [5], the “potency against MMP-2 compared with MMP-3, in words” value was “substantially less potent against MMP-2” and the IC50 came out at 9.3 µM.

As for `Cc1cc(=O)c(O)c(C(=O)NCCc2ccc(-c3ccccc3)cc2)o1` [AM-3], the half-maximal inhibitory concentration (IC50) in test [4] was more than 50 µM; in test [5] it was 27 µM.

For `CC(=O)NO` [AHA (N-hydroxyacetamide), N-hydroxyacetamide, reference compound], the IC50 in test [1] (setting [6]) is 11400 µM; in test [2], 3200 µM.

`O=C(NCc1ccc(-c2ccccc2)cc1)c1occc(=S)c1O` [PY-2S (27), 3-Hydroxy-4-thiopyrone-2-carboxy-N-(4-phenylbenzylamide)] registered an IC50 in test [1] of 38 µM.

`Cc1occc(=S)c1O` [Thiomaltol, thiomaltol]: the figures for the IC50 in test [1] and in test [2] were 260 µM and 247 µM, respectively.

As to `Cc1cc(=O)c(O)c(C(=O)Nc2ccc(-c3ccccc3)cc2)o1` [AM-1, 3-Hydroxy-6-methyl-pyran-4(1H)-one-2-carboxy-N-(4-biphenylamide)], the concentration for half-maximal inhibition (IC50) in test [4] is more than 50 µM; in test [5], 36 µM.

Turning to `Cc1cc(=O)c(O)c(C(=O)NCc2ccc(-c3ccc(C#N)cc3)cc2)o1` [AM-5, 3-Hydroxy-6-methyl-pyran-4(1H)-one-2-carboxy-N-(4-(4-cyanophenyl)benzylamide)], the “reduction of invasion of neonatal rat cardiac fibroblasts through a collagen membrane” value in test [3] is 67%. Moreover, the IC50 in test [4] was more than 50 µM. In test [5], the “potency against MMP-2 compared with MMP-3, in words” value is “substantially less potent against MMP-2” and the IC50 turned out to be 0.61 µM.

As for `O=C(NCc1ccc(-c2ccccc2)cc1)c1cccc(=O)n1O` [compound 20], the concentration for half-maximal inhibition (IC50) was more than 12.5 µM in test [4] and 0.9 µM in test [5].

As for `O=C(NCCc1ccc(-c2ccccc2)cc1)c1occc(=S)c1O` [PY-3S (30)], in test [1], it took 18.5 µM to reach half-maximal inhibition (IC50).
